Experimental data reported in patent US20220289698A1, “INHIBITORS OF HUMAN ATGL” (Karl-Franzens-Universität Graz, priority 2019, published 2022).
pIC50, pKi: −log10 of the molar value. Read-outs that look alike come from different tables or passages of the source.

How the values were obtained:
[1] = molecular target: T1, human ATGL (Homo sapiens, UniProt Q96AD5); assay: TG hydrolase activity, Expi cell lysates expressing human ATGL + CGI-58, radiolabelled triolein; assay type: biochemical
T1 construct: made in house; host or cells: Expi cells (lysate, not purified)
T1 sequence (Q96AD5 1-504): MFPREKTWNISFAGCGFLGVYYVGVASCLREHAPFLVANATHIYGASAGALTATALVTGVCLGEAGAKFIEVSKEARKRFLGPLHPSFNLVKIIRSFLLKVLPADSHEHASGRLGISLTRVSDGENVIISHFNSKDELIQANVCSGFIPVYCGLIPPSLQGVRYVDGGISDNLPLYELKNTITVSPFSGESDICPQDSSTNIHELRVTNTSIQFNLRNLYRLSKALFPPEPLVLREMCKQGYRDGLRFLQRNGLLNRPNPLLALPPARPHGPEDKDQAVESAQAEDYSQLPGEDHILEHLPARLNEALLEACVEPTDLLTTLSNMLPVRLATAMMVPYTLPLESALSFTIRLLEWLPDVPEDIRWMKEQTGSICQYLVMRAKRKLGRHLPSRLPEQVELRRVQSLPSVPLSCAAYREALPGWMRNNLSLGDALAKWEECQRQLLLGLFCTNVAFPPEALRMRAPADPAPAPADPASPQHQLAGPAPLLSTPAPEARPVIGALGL
Summary of the method: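 Lysates of Expi cells expressing ATGL, supplemented with purified CGI-58 and inhibitor in DMSO, incubated 1 h at 37 °C with emulsified radiolabelled triolein (330 μM) in potassium phosphate pH 7.0 with 5% FA-free BSA. Released FA counted by liquid scintillation after phase extraction; IC50 versus DMSO control, duplicates.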

[2] = molecular target: T2, murine ATGL (Mus musculus, UniProt Q8BJ56); assay: TG hydrolase activity, Expi lysates expressing mouse ATGL + CGI-58, radiolabelled triolein; assay type: biochemical
T2 construct: made in house; host or cells: Expi cells (lysate)
T2 sequence (Q8BJ56 1-486): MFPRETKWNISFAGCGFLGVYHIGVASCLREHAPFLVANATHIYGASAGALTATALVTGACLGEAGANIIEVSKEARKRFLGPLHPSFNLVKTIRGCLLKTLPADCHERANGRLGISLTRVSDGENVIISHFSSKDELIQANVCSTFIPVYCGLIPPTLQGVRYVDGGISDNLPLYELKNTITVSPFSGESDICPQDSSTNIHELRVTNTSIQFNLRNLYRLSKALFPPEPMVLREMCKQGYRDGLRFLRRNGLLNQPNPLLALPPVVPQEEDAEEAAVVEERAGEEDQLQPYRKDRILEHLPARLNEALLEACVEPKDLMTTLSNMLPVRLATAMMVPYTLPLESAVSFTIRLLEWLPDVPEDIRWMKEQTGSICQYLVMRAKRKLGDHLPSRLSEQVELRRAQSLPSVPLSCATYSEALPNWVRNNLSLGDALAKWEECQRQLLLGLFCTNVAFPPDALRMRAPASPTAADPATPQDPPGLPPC
Summary of the method: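 Lysates of Expi cells overexpressing mouse ATGL, with added recombinant CGI-58, were incubated with inhibitor at 50 μM. Substrate was emulsified radiolabelled triolein with PC/PI in 100 mM potassium phosphate pH 7.0 and 5% FA-free BSA, 1 h at 37° C. Released FA were extracted and counted by scintillation; triplicates, DMSO control.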

[3] = system: differentiated SGBS adipocytes; assay: Isoproterenol-stimulated lipolysis in differentiated SGBS adipocytes; assay type: cell-based; settings: Homo sapiens, 2 h pretreatment, 1 μM isoproterenol 1 h
Method: Human differentiated SGBS adipocytes were pretreated with DMSO or ATGL inhibitors for 2 h. Subsequently, lipolysis was stimulated with 1 μM Isoproterenol for 1 h and fatty acid release was determined from media via NEFA Reagent (Wako Diagnostics). Samples were measured in triplicates.
Human differentiated SGBS adipocytes were pretreated with DMSO or ATGL inhibitors for 2 h. Subsequently, lipolysis was stimulated with 1 μM Isoproterenol for 1 h and glycerol release was determined from media via Free glycerol reagent (Sigma Aldrich). Samples were measured in triplicates.

[4] = molecular target: T1, human ATGL; assay: Ki determination, human ATGL lysates with increasing substrate concentrations; assay type: biochemical; settings: non-linear regression
Method: For determination of Ki values, lysates from Expi cells overexpressing human ATGL were incubated with recombinant purified ATGL co-activator CGI-58 and ATGL inhibitors at a single concentration dependent on the previously determined IC50. Increasing concentrations of substrate containing radiolabeled triolein were added and liberated FA were extracted and quantified by liquid scintillation. Inhibitors were dissolved in DMSO which was used as control. Ki was determined via non-linear regression analysis. Samples were measured in triplicates.

[5] = Stability in human serum; assay type: in vitro ADME; settings: 37° C., HPLC MS
Method: Inhibitors were incubated in human serum for 0 or 3 h at 37° C. and subsequently extracted with the MTBE method and analyzed via HPLC MS. Samples measured in triplicates.

[6] = molecular target: T3, hPNPLA9 (Homo sapiens, UniProt O60733); assay: hPNPLA9 off-target inhibition; assay type: biochemical; settings: read-out: hPNPLA9 off-target inhibition [% inhibition at 100 μM]
T3 construct: made in house; host or cells: Expi cells (lysate)
T3 sequence (O60733 1-806): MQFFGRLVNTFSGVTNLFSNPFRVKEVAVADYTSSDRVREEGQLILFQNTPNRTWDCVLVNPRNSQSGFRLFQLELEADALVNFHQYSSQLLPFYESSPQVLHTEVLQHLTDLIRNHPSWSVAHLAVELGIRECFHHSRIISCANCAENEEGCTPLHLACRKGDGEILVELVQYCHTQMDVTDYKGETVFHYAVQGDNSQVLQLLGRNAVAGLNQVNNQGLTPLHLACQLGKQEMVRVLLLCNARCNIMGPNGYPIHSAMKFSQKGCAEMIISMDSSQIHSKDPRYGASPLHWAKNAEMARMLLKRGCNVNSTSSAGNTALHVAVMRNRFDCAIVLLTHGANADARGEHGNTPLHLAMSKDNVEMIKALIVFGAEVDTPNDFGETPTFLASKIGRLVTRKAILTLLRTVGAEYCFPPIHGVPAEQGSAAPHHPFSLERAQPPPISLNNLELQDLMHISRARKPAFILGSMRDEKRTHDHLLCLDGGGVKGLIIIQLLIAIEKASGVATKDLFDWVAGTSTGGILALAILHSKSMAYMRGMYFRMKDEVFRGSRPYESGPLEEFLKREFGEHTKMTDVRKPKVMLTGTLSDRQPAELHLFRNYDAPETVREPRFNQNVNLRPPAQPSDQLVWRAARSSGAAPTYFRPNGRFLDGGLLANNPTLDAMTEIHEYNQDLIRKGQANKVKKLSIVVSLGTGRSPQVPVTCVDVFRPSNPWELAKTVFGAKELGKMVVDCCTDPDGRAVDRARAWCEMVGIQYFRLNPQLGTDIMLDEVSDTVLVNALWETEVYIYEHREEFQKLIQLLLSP
Method: Expi lysates expressing hPNPLA9 were treated with 100 μM Inhibitors and incubated with 1 mM C8 monoacylglycerol substrate (containing 5 mM CHAPS, 50 mM NaPh buffer ph7.4, 0.15 M NaCl) for 40 min. Glycerol release was determined via Free glycerol reagent (Sigma Aldrich). Samples measured in triplicates, […]

[7] = Example 237, read-out: Inhibition of human ATGL − IC50
[8] = 50 μM compound, Example 237, read-out: Inhibition of murine ATGL at 50 μM − mean [%]
[9] = 50 μM, overview table, read-out: mouse ATGL inhibition [% inhibition at 50 μM]
[10] = fatty acid release, read-out: IC50 SGBS FA release
[11] = glycerol release, read-out: IC50 SGBS glycerol release

Structure (SMILES): CCOC(=O)c1cc(C)cc(-c2ccc(OCC)cc2)n1 [Example 14]
- pIC50 [1, 7]: 5.00
- inhibition at 50 µM [2, 8]: 6.1%
- melting point: 90 to 91 °C

Structure (SMILES): CCOc1ccc(-c2cc(OC)cc(C(=O)OC)n2)cc1 [Example 26]
- pIC50 [1, 7]: 4.92
- inhibition at 50 µM [2, 8]: 23.1%
- melting point: 94 to 103 °C

Structure (SMILES): C=CC(C)OC(=O)c1csc(-c2ccc(OCC)cc2)n1 (stereo not shown) [Example 148, But-3-en-2-yl 2-(4-ethoxyphenyl)thiazole-4-carboxylate]
- pIC50 [1, 7]: 5.70
- inhibition at 50 µM [2, 9]: 30%
- pIC50 [3, 10]: 5.70
- pIC50 [3, 11]: 5.52

Structure (SMILES): CC(C)OC(=O)c1cccc(-c2ccc(CO)cc2)n1 [Example 12]
- pIC50 [1, 7]: 4.60
- inhibition at 50 µM [2, 8]: 0%
- melting point: 129 to 131 °C

Structure (SMILES): C=C(C)COC(=O)c1csc(-c2ccc(OCC)cc2)n1 [Example 120, 2-Methylallyl 2-(4-ethoxyphenyl)thiazole-4-carboxylate]
- pIC50 [1, 7]: 5.40
- inhibition at 50 µM [2, 8]: 40.5%
- inhibition at 50 µM [2, 9]: 40%
- pKi [4]: 5.92
- Stability in human serum [% rest after 3 h incubation] [5]: 5%

Structure (SMILES): CC(C)OC(=O)c1cccc(-c2ccc(OC(F)(F)F)cc2)n1 [Example 37]
- pIC50 [1, 7]: 5.00
- inhibition at 50 µM [2, 8]: 22.8%
- melting point: 43 to 47 °C

Structure (SMILES): CC(C)OC(=O)c1cccc(-c2ccc(C(F)(F)F)cc2)n1 [Example 41]
- pIC50 [1, 7]: 5.52
- inhibition at 50 µM [2, 8]: 28.2%
- pKi [4]: 5.60
- melting point: 98 to 99 °C
- Stability in human serum [% rest after 3 h incubation] [5]: 75%

Structure (SMILES): CCOC(=O)c1cccc(-c2ccc(OCCOC)cc2)n1 [Example 8]
- pIC50 [1, 7]: 5.00
- inhibition at 50 µM [2, 8]: 9.1%
- melting point: 89 to 94 °C

Structure (SMILES): CCOCCOc1ccc(-c2cccc(C(=O)OC(C)C)n2)cc1 [Example 16]
- pIC50 [1, 7]: 5.52
- inhibition at 50 µM [2, 8]: 18.1%
- melting point: 46 to 47 °C

Structure (SMILES): CCCCCCOc1ccc(-c2cccc(C(=O)OC)n2)cc1 [Example 89]
- pIC50 [1, 7]: 4.60
- inhibition at 50 µM [2, 8]: 0%
- melting point: 68 to 69 °C

Structure (SMILES): CCCCc1ccc(-c2cccc(C(=O)OC(C)C)n2)cc1 [Example 94]
- pIC50 [1, 7]: 5.70
- inhibition at 50 µM [2, 8]: 0%
- melting point: 51 to 55 °C

Structure (SMILES): CCOC(=O)c1ccc(-c2cccc(C(=O)OC(C)C)n2)cc1 [Example 29]
- pIC50 [1, 7]: 5.22
- inhibition at 50 µM [2, 8]: 0%
- melting point: 56 to 62 °C

Structure (SMILES): COCCOCCOc1ccc(-c2cccc(C(=O)OC(C)C)n2)cc1 [Example 15]
- pIC50 [1, 7]: 5.22
- inhibition at 50 µM [2, 8]: 0%
- melting point: 45 to 46 °C

Structure (SMILES): CC(=O)Oc1ccc(-c2cccc(C(=O)OC(C)C)n2)cc1 [Example 23]
- pIC50 [1, 7]: 4.82
- inhibition at 50 µM [2, 8]: 16%
- melting point: 71 to 75 °C

Structure (SMILES): C=CCOC(=O)c1cccc(-c2ccc(OCC)cc2)n1 [Example 32]
- pIC50 [1, 7]: 5.22
- inhibition at 50 µM [2, 8]: 18.6%
- melting point: 65 to 70 °C

Structure (SMILES): CCCOc1ccc(-c2nc(C(=O)OCC)cs2)cc1 [Example 105, Ethyl 2-(4-propoxyphenyl)thiazole-4-carboxylate]
- pIC50 [1, 7]: 5.52
- inhibition at 50 µM [2, 8]: 12.2%
- pIC50 [3, 10]: 5.52
- pIC50 [3, 11]: 5.52

Structure (SMILES): CCOc1ccc(-c2cccc(C(=O)OCc3ccoc3)n2)cc1 [Example 198, Furan-3-ylmethyl 6-(4-ethoxyphenyl)picolinate]
- pIC50 ([1]; Example 238, read-out: Inhibition of human ATGL IC50): 4.70
- inhibition at 50 µM ([2]; 50 μM, Example 238, read-out: % Inhibition of murine ATGL at 50 μM): 82%
- melting point: 97 to 101 °C

Structure (SMILES): COCCOc1ccc(-c2cccc(C(=O)OC(C)C)n2)cc1 [Example 11]
- pIC50 [1, 7]: 5.30
- inhibition at 50 µM [2, 8]: 1.8%
- melting point: 75 to 77 °C

Structure (SMILES): CCS(=O)(=O)c1ccc(-c2cccc(C(=O)OC(C)C)n2)cc1 [Example 18]
- pIC50 [1, 7]: 5.00
- inhibition at 50 µM [2, 8]: 0%
- melting point: 126 to 129 °C

Structure (SMILES): COCc1ccc(-c2cccc(C(=O)OC(C)C)n2)cc1 [Example 19]
- pIC50 [1, 7]: 5.52
- inhibition at 50 µM [2, 8]: 3.9%
- melting point: 55 to 58 °C

Structure (SMILES): CCOc1ccc(-c2cccc(C(=O)OC(C)CC)n2)cc1 (stereo not shown) [Example 30]
- pIC50 [1, 7]: 5.10
- inhibition at 50 µM [2, 8]: 0%
- melting point: 49 to 51 °C

Structure (SMILES): CCOc1ccc(-c2cccc(C(=O)OC(C)C)n2)cc1 [Example 6]
- inhibition at 100 µM [6]: 0%
- pIC50 [1, 7]: 5.52
- inhibition at 50 µM [2, 8]: 0%
- pIC50 [3, 10]: 5.70

Structure (SMILES): CCc1ccc(-c2cccc(C(=O)OC(C)C)n2)cc1 [Example 55]
- pIC50 [1, 7]: 5.52
- inhibition at 50 µM [2, 8]: 1.4%
- melting point: 82 to 84 °C

Structure (SMILES): CCCCCCOc1ccc(-c2cc(OC)cc(C(=O)OC(C)C)n2)cc1 [Example 83]
- pIC50 [1, 7]: 5.60
- inhibition at 50 µM [2, 8]: 0.1%
- melting point: 53 to 55 °C

Structure (SMILES): C#CC(C)OC(=O)c1cccc(-c2ccc(CCC)cc2)n1 (stereo not shown) [Example 70]
- pIC50 [1, 7]: 5.52
- inhibition at 50 µM [2, 8]: 0%
- melting point: 90 to 92 °C

Structure (SMILES): CCOC(=O)c1cccc(-c2ccc(C#N)cc2)n1 [Example 88]
- pIC50 [1, 7]: 4.60
- inhibition at 50 µM [2, 8]: 0%
- melting point: 108 to 109 °C

Structure (SMILES): CC(C)OC(=O)c1cccc(-c2ccc(Cl)cc2)n1 [Example 87]
- pIC50 [1, 7]: 5.52
- inhibition at 50 µM [2, 8]: 0%
- melting point: 94 to 95 °C
